# Patent US20180258180A1, “COMBINATION THERAPY INVOLVING ANTIBODIES AGAINST CLAUDIN 18.2 FOR TREATMENT OF CANCER” (Ganymed Pharmaceuticals AG, priority 2012, published 2018)
# Tests used:
# KatoIII cells [1] = test: Cell cycle analysis of KatoIII cells treated with cytostatic compounds; format: cell-based, human; conditions: for cell cycle phase in which cells are predominantly arrested/enriched: KatoIII cells, 96 hours; for cell cycle arrest phase: KatoIII cells pretreated for 4 days
# Experimental: (§1) KatoIII cells, a human gastric tumor cell line, was cultivated in RPMI 1640 medium (Invitrogen) containing 20% FCS (Perbio) and 2 mM Glutamax (Invitrogen) at 37° C. and 5% CO2, with or without cytostatic compounds. Epirubicin (Pfizer) was tested at a concentration of 10 or 100 ng/ml, 5-FU (Neofluor from NeoCorp AG) was tested at a concentration of 10 or 100 ng/ml, and oxaliplatin (Hospira) was tested at a concentration of 50 or 500 ng/ml. A combination of all 3 compounds (EOF; epirubicin 10 ng/ml, oxaliplatin 500 ng/ml, 5-FU 10 ng/ml) was also used. 8×10^5 KatoIII cells were cultivated for 96 hours without medium change or for 72 hours followed by 24 hours cultivation in standard medium to release cells from cell cycle arrest in a 6-well tissue culture plate at 37° C., 5% CO2. Cells were harvested with EDTA/trypsin, washed and analysed.
# Cell cycle stages were determined based on measurement of cellular DNA content. This allows one to discriminate between cells in the G1-, S- or G2-phase of the cell cycle. In the S-phase DNA duplication occurs whereas in the G2-phase cells grow and prepare for mitosis. Cell cycle analysis was done using the CycleTEST PLUS DNA Reagent Kit from BD Biosciences following the manufacturer's protocol. Flow cytometry acquisition and analysis were performed by using BD FACS CantoII (BD Biosciences) and FlowJo (Tree Star) software.
# (§2) KatoIII cells were pretreated for 4 days with Irinotecan or Docetaxel and analysed for CLDN18.2 expression and cell cycle arrest.
# CLDN18.2 = test: Extracellular detection of CLDN18.2 on treated KatoIII cells by flow cytometry; format: cell-based, human; conditions: 96 hours, FIG. 1
# Experimental: as §1
# As secondary reagent goat-anti-huIgG-APC from Dianova was used.
# KatoIII cells [2] = test: IMAB362 induced ADCC / viability of pretreated KatoIII cells (luciferase); format: cell-based, human; conditions: KatoIII pretreated for 3 days; for level of viable cells compared to medium cultivated target cells: Irinotecan 1000 ng/ml, Docetaxel 5 ng/ml, Cisplatin 2000 ng/ml
# Experimental: Peripheral blood mononuclear cells (PBMCs) including NK cells, monocytes, mononuclear cells or other effector cells from healthy human donors were purified by Ficoll Hypaque density centrifugation. Washed effector cells were seeded in X-Vivo medium. KatoII cells which express CLDN18.2 endogenously and are of gastric origin were used as target cells in this setting. Target cells stably expressed luciferase, lucifer yellow, which is oxidized by viable cells only.
# claudin18.2 = claudin18.2 expression in pretreated KatoIII cells; format: cell-based, human; conditions: KatoIII pretreated for 3 days; Irinotecan 1000 ng/ml, Docetaxel 5 ng/ml, Cisplatin 2000 ng/ml
# KatoIII cells [3] = test: Cell growth of KatoIII cells pretreated with Irinotecan or Docetaxel; format: cell-based, human; conditions: KatoIII cells pretreated for 4 days
# From the text: as §2
# PBMCs = test: Expansion of PBMC cultures with ZA/IL-2; format: cell-based, human; conditions: 14 days, 300 U/ml IL-2
# Experimental: PBMCs were harvested from healthy human donors and cultures were treated with a single dose of ZA. […] FIG. 8a. […] FIG. 8b. Increase in cell numbers was determined by counting living cells on day 6, 8, 11 and 14.
# Vγ9Vδ2 T cells = test: Enrichment of Vγ9Vδ2 T cells co-cultured with monocytes ± ZA; format: cell-based, human; conditions: co-culture 14 days, ±1 μM ZA
# Experimental: The enrichment of Vγ9Vδ2 T cells in the co-cultures after 14 days was determined by multicolor FACS, whereas the expansion of the culture was considered in the calculation. The enrichment factor of Vγ9Vδ2 T cells cultured with monocytes in a 1:4 ratio was set to 100% for each experiment. […] This effect was clearly ZA-dependent; cf. FIG. 11a.
# NUGC-4 = format: cell-based, human
# Experimental: (§3) Furthermore, human stomach cancer cells (NUGC-4-luciferase) and murine stomach cancer cells (CLS103-calcein stained) were pretreated with or w/o 5 μM ZA for 2 days. Human Vγ9Vδ2 T cells were MACS purified (day 14) and co-cultured with the cancer cells for 24 h. Cytotoxicity of Vγ9V52 T cells towards non-treated and ZA-treated target cells was determined by measuring remaining luciferase activity or calcein fluorescence; cf. FIG. 11b. Target cells (NUGC-4 and CLS103) were pretreated with or w/o 5 μM ZA for 2 days and subsequently incubated for 4 h with mitomycin c ([…]) to stop proliferation. MACS purified human 14d old resting Vγ9V62 T cells and ^3H-thymidine were added to the target cells and co-cultures were incubated for 48 h at 37° C. Proliferation was determined by measuring ^3H thymidine incorporation in the DNA using a MicroBeta scintillation counter. Proliferation of target cells not treated with ZA and w/o Vγ9Vδ2 T cells was set to 100%; cf. FIG. 11c.
# CLS103 = test system: CLS103
# Experimental: as §3
# [4] = target: Claudin 18 splice variant 2 (CLDN18.2), human (human)
# [5] = test system: HEK293~CLDN18.2 transfectants; test: Early treatment of HEK293~CLDN18.2 tumor xenografts; format: in vivo, nude mice; conditions: isotype control, twice per week for 6 weeks
# From the text: Moreover, advanced tumor treatment experiments were initiated up to 9 days after tumor cell inoculation when tumors had reached volumes of about 60-120 mm^3.
# Nude mice were subcutaneously inoculated with 1×10^7 HEK293˜CLDN18.2 transfectants. Treatment of 10 mice per group started 3 days after tumor inoculation. […] Not only time to death was prolonged, but 4 of 10 mice survived the entire observation period of 210 days.
# NUGC-4 xenografts = test: Biodistribution of Dyelight 680-labeled antibodies in NUGC-4 xenografted nude mice; conditions: negative control, NUGC-4 negative for CD20
compound,measurement,setting,value
"O=c1[nH]cc(F)c(=O)[nH]1 [5-FU, 5-fluoro-1H-pyrimidine-2,4-dione]",cell cycle phase in which cells are predominantly arrested/enriched,KatoIII cells [1],S-phase
same,CLDN18.2-expression,CLDN18.2,stabilize
"N.N.[Cl][Pt][Cl] [Cisplatin, cis-diamminedichloroplatinum(II)]",potency of IMAB362 to induce ADCC after pretreatment of target cells,KatoIII cells [2],augmented
same,level of viable cells compared to medium cultivated target cells,KatoIII cells [2],lower level of viable cells
same,claudin18.2 expression compared to medium cultivated cells,claudin18.2,increased
"CC(=O)O[C@@]12CO[C@@H]1C[C@H](O)[C@@]1(C)C(=O)[C@H](O)C3=C(C)[C@@H](OC(=O)[C@H](O)[C@@H](NC(=O)OC(C)(C)C)c4ccccc4)C[C@@](O)([C@@H](OC(=O)c4ccccc4)[C@H]21)C3(C)C [Docetaxel, docetaxel]",cell cycle arrest phase,KatoIII cells [1],G2-phase
same,cell growth,KatoIII cells [3],dose dependent inhibition
same,potency of IMAB362 to induce ADCC after pretreatment of target cells,KatoIII cells [2],augmented
same,level of viable cells compared to medium cultivated target cells,KatoIII cells [2],lower level of viable cells
same,claudin18.2 expression compared to medium cultivated cells,claudin18.2,increased
COc1cccc2c1C(=O)c1c(O)c3c(c(O)c1C2=O)C[C@@](O)(C(=O)CO)C[C@@H]3O[C@H]1C[C@H](N)[C@@H](O)[C@H](C)O1 [Epirubicin],cell cycle phase in which cells are predominantly arrested/enriched,KatoIII cells [1],G2-phase
same,CLDN18.2-expression,CLDN18.2,stabilize
"CCc1c2c(nc3ccc(OC(=O)N4CCC(N5CCCCC5)CC4)cc13)-c1cc3c(c(=O)n1C2)COC(=O)[C@]3(O)CC [Irinotecan, (S)-4,11-diethyl-3,4,12,14-tetrahydro-4-hydroxy-3,14-dioxo1H-pyrano[3′,4′:6,7]-indolizino[1,2-b]quinolin-9-yl-[1,4′bipiperidine]-1′-carboxylate]",cell cycle arrest phase,KatoIII cells [1],S/G2-phase
same,cell growth,KatoIII cells [3],dose dependent inhibition
same,potency of IMAB362 to induce ADCC after pretreatment of target cells,KatoIII cells [2],augmented
same,level of viable cells compared to medium cultivated target cells,KatoIII cells [2],lower level of viable cells
same,claudin18.2 expression compared to medium cultivated cells,claudin18.2,increased
"O=C1[O][Pt]2([NH][C@@H]3CCCC[C@H]3[NH]2)[O]C1=O [Oxaliplatin, [(1R,2R)-cyclohexane-1,2-diamine](ethanedioato-O,O′)platinum(II)]",cell cycle phase in which cells are predominantly arrested/enriched,KatoIII cells [1],G1- and G2-phases
"O=P(O)(O)C(O)(Cn1ccnc1)P(=O)(O)O [ZA, [1-hydroxy-2-(1H-imidazol-1-yl)ethane-1,1-diyl]bis(phosphonic acid)]",expansion of cells in medium without ZA compared to with ZA (lower),PBMCs,about 2 fold
same,"enrichment of Vγ9Vδ2 T cells with increase of monocytes, ZA-dependent",Vγ9Vδ2 T cells,more than 10 fold
same,activation of Vγ9Vδ2 T cell cytotoxicity by ZA-pulsed cancer cells,NUGC-4,5-10 fold
same,activation of Vγ9Vδ2 T cell proliferation by ZA-pulsed cancer cells,"NUGC-4; 5 μM ZA for 2 days, co-culture 48 h, 3H-thymidine",1.4-1.8 fold
same,activation of Vγ9Vδ2 T cells (cytotoxicity and proliferation) by ZA-pulsed cancer cells,CLS103,failed to elicit these effects
IMAB362 (antibody),"EC50 (read off the curve), ADCC on KatoIII cells pretreated 3 days with Irinotecan (Irino imab362)",[4],1 µg/mL
same,"EC50 (read off the curve), ADCC on medium-cultivated KatoIII cells (Med imab362)",[4],2 µg/mL
infliximab: isotype control antibody [reference compound],time within which all mice died,[5],70 to 80 days
rituximab: Dyelight 680-labeled negative control antibody (NUGC-4 negative for CD20) [reference compound],signal of labeled antibody in NUGC-4 engrafted mice,NUGC-4 xenografts,No signal is detected
